Experimental findings from patent US6685960B1, “Solid lipidic nanospheres suitable to a fast internalization into cells” (priority 1998, dated 2004) are described below.

Molecules are shown by their SMILES.

The test system of test [1] is NIH-H460 cells of lung carcinoma. Briefly: Inhibition of cell proliferation, NIH-H460 cells counted by Cell Counter. Format: cell-based. The procedure: The experimentation has been carried out on NIH-H460 cells of lung carcinoma (D. N. Carney et al., Cancer Res., 45, 2913-2923, 1985) grown in monolayer in the RPMI 1640 nutrient medium (Bio Whittaker, Verviers, Belgium) added with 10% by volume with respect to the total volume of FCS (Fetal Calf Serum), at the temperature of 37° C., in a CO2 atmosphere humidified at 5%.
The cells have been put in 24 wells plates, using as nutrient medium RPMI 1640 added with 10% of FCS, and left to adhere for 24 hours. The insemination medium has been then removed and substituted with the experimental medium consisting of RPMI 1640 with 10% of FCS and increasing concentrations of sodium butyrate, or of cholesteryl butyrate in form of nanospheres prepared as in the above reported example 1. The cells have been kept for 6 days in contact with such experimental medium.
The effect of the sodium butyrate and of cholesteryl butyrate on the cell growth has been estimated counting the cells by a Cell Counter.

Test [2] has as its system cells of the mastocarcinoma, MCF7. Briefly: Inhibition of cell proliferation, MCF7 cells counted by Cell Counter. Format: cell-based. The conditions noted are these: Homo sapiens, MCF7, 144 h, read-out: inhibition of the cell growth. The procedure: The above described experiment has been repeated on cells of the mastocarcinoma, identified with the MCF7 abbreviation, using as insemination medium DMEM/F12 (Dulbecco's modified Eagle's medium, Sigma Chemical Co., St. Louis, Mo.) with 2% FCS.
Said cells have been placed in 12 well plates, where they have been left to adhere for 24 hours in the above described nutrition medium.
The nutrient medium has been then removed and substituted with the experimental medium consisting of DMEM/F12 with 10% FCS added with increasing concentrations of sodium butyrate, or of cholesteryl butyrate in form of nanospheres prepared according to the above reported example 2. The cells have been kept for 6 days in contact with such experimental medium.
The antiproliferative effect of the cholesteryl butyrate nanospheres on the cell growth has been estimated counting the cells with a Cell Counter.

With `CC(C)CCC[C@@H](C)[C@H]1CC[C@H]2[C@@H]3CC=C4C[C@@H](O)CC[C@]4(C)[C@H]3CC[C@]12C` [cholesterol], in test [1] (comparison test, additive of the experimental medium RPMI 1640 with 10% FCS), the “effect on the cell proliferation” value is recorded as “does not affect the cell proliferation in any way”.

As for `CCCC(=O)[O-].[Na+]` [sodium butyrate], the inhibition at 210 µM in test [1] (NIH-H460, 144 h, read-out: inhibition of the cell growth) worked out at 50%. Also, the inhibition at 200 µM in test [2] turned out to be 40%.

A word on the inhibition: it is the percentage by which the read-out fell short of the control.
